Holding throughout (format): cell-based
The target of assay [1] is T1, BCL-XL (Homo sapiens, UniProt Q07817).
T1 construct: endogenous in cells; host or cells: MOLT-4
Put plainly: BCL-XL degradation assay, western blot in MOLT-4 cells, 16 h. The conditions noted are these: western blot, MOLT-4 cells, 16 h; for Dmax: read-out: Bcl-xL WB in MOLT-4 degradation 16 h: Average Dmax %; for DC50: read-out: Bcl-xL WB in MOLT-4 degradation 16 h: Mean external-Abs DC50. In a few lines: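 Infrared-imaged western blots quantified BCL-xL (normalised against beta-actin/GAPDH) after 16 hr, 37° C exposure of MOLT-4 cells to 0.02-10 μM compound; results given as DC50 and Dmax % bins.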
For orientation: A western blot detects proteins with antibodies after separation by electrophoresis.

Assay [2] has as its target T1, BCL-XL. Kind of assay: Bcl-xL ELISA degradation in MOLT-4 cells, 6 h. The conditions noted are these: for DC50: read-out: Bcl-xL ELISA in MOLT-4 degradation 6 h: Mean external-Abs DC50. The protocol:
The letter codes for BCL-XL DC50 include: A (<0.01 μM); B (0.01-0.1 μM); C (>[…]); D (>0.5-1.0 μM); and E (>1.0 μM). The letter codes for Dmax % include A (>75%); B (50 to 75%); C (<50%).
Background: An ELISA detects its analyte on a solid surface through an enzyme-linked reagent.

Another assay deals with MOLT-4 cells. Kind of assay: CTG (CellTiter-Glo) cell viability assay, MOLT-4. The conditions noted are these: Homo sapiens, MOLT-4, 72 h, 3 day incubation, read-out: CTG Cell Viability Assay - MOLT-4 3 day: Average external-IC50. Put shortly: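 10,000 cells/well; 9 doses, 1:3 from 10 μM top; 0.2% DMSO; 3 d, 37 °C, 5% CO2; CTG luminescence; IC50 via 3-parameter logistic fit. Letter bins differ: Caki-2 C/D cut at 10.0 μM, MOLT-4 at 3.0 μM.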
On the technique in general: In ATP-based viability assays light output follows the ATP content of the culture.

For orientation: Dmax means the largest share of the target that was removed. The DC50 is the concentration giving 50% degradation. In general, IC50 refers to the concentration at which inhibition is half-maximal.

T1 sequence (Q07817 whole entry): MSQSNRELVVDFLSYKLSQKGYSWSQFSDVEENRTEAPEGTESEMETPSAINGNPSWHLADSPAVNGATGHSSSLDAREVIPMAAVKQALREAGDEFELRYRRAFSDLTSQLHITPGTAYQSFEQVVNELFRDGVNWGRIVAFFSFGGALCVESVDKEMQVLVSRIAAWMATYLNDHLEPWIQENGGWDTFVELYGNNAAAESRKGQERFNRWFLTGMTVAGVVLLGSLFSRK

Regarding `C#Cc1ccc([C@H](CO)NC(=O)[C@@H]2C[C@@H](O)CN2C(=O)[C@@H](NC(=O)CCc2ccc(S(=O)(=O)NC(=O)c3nc(N(C)c4cc(C)c(Nc5nc6ccccc6s5)nn4)ccc3-c3cnn(CC4CCCCC4)c3C)cc2)C(C)(C)C)cc1` [I-186], on BCL-XL [1], the maximal degradation (Dmax) was greater than 75% and the DC50 is 10 to 100 nM. On BCL-XL [2], the Dmax is 50 to 75% and the DC50 was 10 to 100 nM. Moreover, the IC50 with MOLT-4 cells fell in the range of 100 to 1000 nM.
As for `Cc1ncsc1-c1ccc([C@H](C)NC(=O)[C@@H]2C[C@@H](O)CN2C(=O)[C@@H](NC(=O)CCCCCCCCC(=O)N2CCN(CC#Cc3ccc(OCCCc4sc(N5CCc6cccc(C(=O)Nc7nc8ccccc8s7)c6C5)nc4C(=O)O)c(F)c3)CC2)C(C)(C)C)cc1` [I-204], on BCL-XL [1], the Dmax is greater than 75% and the DC50 was less than 10 nM. In addition, on BCL-XL [2], the Dmax was greater than 75% and the DC50 is 10 to 100 nM. Further, the IC50 in the assay on MOLT-4 cells lay in the range of 100 to 1000 nM.
Turning to `Cc1ncsc1-c1ccc(CNC(=O)[C@@H]2C[C@@H](O)CN2C(=O)[C@H](c2cc(N3CC4(CN(C(=O)CCCCC(=O)N(C)CC#Cc5ccc(OCCCc6ccc(N7CCc8cccc(C(=O)Nc9nc%10ccccc%10s9)c8C7)nc6C(=O)O)c(F)c5)C4)C3)no2)C(C)C)cc1` [I-192], at BCL-XL [1], the Dmax is 50 to 75% and the DC50 was less than 10 nM. On BCL-XL [2], the Dmax was less than 50% and the DC50 is greater than 1000 nM. Further, the IC50 in the assay with MOLT-4 cells was in the range of 1000 to 3000 nM.
With `Cc1ncsc1-c1ccc([C@H](C)NC(=O)[C@@H]2C[C@@H](O)CN2C(=O)[C@@H](NC(=O)COCCN2CCC(S(=O)(=O)NC(=O)c3nc(N4CCc5cccc(C(=O)Nc6nc7ccccc7s6)c5C4)ccc3-c3cnn(CC4CCCCC4)c3C)CC2)C(C)(C)C)cc1` [I-206], on BCL-XL [1], the Dmax is greater than 75% and the DC50 was less than 10 nM. On BCL-XL [2], the Dmax lay in the range of 50 to 75% and the DC50 lay within 10 to 100 nM. Also, in the assay with MOLT-4 cells, the IC50 was 100 to 1000 nM.
Turning to `Cc1ncsc1-c1ccc(CNC(=O)[C@@H]2C[C@@H](O)CN2C(=O)[C@@H](NC(=O)C2(F)CC2)C(C)(C)C)c(OCCN2CC3(C2)CN(C(=O)c2nc(N4CCc5cccc(C(=O)Nc6nc7ccccc7s6)c5C4)ccc2-c2cnn(CC4CCCCC4)c2C)C3)c1` [I-207], the Dmax was 50 to 75% on BCL-XL [1] and less than 50% on BCL-XL [2]. The DC50 on BCL-XL [1] is 100 to 500 nM; at BCL-XL [2] it was greater than 1000 nM. The IC50 with MOLT-4 cells lay in the range of 100 to 1000 nM.
As for `C#Cc1ccc([C@H](CO)NC(=O)[C@@H]2C[C@@H](O)CN2C(=O)[C@@H](NC(=O)CCc2ccc(S(=O)(=O)NC(=O)c3nc(N4CCc5cccc(C(=O)Nc6nc7ccccc7s6)c5C4)ccc3-c3cnn(CC4CCCCC4)c3C)cc2)C(C)(C)C)cc1` [I-194], the Dmax on BCL-XL [1] and at BCL-XL [2] was greater than 75% throughout. Moreover, the DC50 is less than 10 nM on BCL-XL [1] and 10 to 100 nM on BCL-XL [2]. The IC50 with MOLT-4 cells was less than 100 nM.
Consider `Cc1ncsc1-c1ccc([C@H](C)NC(=O)[C@@H]2C[C@@H](O)CN2C(=O)[C@@H](NC(=O)CO[C@H]2C[C@H](OCCNC(=O)c3nc(N4CCc5cccc(C(=O)Nc6nc7ccccc7s6)c5C4)ccc3-c3cnn(CC4CCCCC4)c3C)C2)C(C)(C)C)cc1` [I-182], for which the values for the Dmax on BCL-XL [1] and at BCL-XL [2] were greater than 75% and 50 to 75%, respectively. For the same compound, the DC50 at BCL-XL [1] is 10 to 100 nM; at BCL-XL [2] it was 100 to 500 nM. Moreover, the IC50 in the assay on MOLT-4 cells fell in the range of 100 to 1000 nM.
Take `Cc1ncsc1-c1ccc(CNC(=O)[C@@H]2C[C@@H](O)CN2C(=O)[C@@H](NC(=O)C2(F)CC2)C(C)(C)C)c(OCC(=O)N2CCN(CC#Cc3ccc(OCCCc4sc(N5CCc6cccc(C(=O)Nc7nc8ccccc8s7)c6C5)nc4C(=O)O)c(F)c3)CC2)c1` [I-170]: the Dmax was greater than 75% at BCL-XL [1] and 50 to 75% at BCL-XL [2]. The DC50 on BCL-XL [1] and on BCL-XL [2] was 10 to 100 nM in each case. In addition, the IC50 in the assay with MOLT-4 cells was 100 to 1000 nM.
Consider `Cc1ncsc1-c1ccc([C@H](C)NC(=O)[C@@H]2C[C@@H](O)CN2C(=O)[C@@H](NC(=O)N2CC(c3ccc(S(=O)(=O)NC(=O)c4nc(N5CCc6cccc(C(=O)Nc7nc8ccccc8s7)c6C5)ccc4-c4cnn(CC5CCCCC5)c4C)cc3)C2)C(C)(C)C)cc1` [I-210], for which, on BCL-XL [1], the Dmax was greater than 75% and the DC50 was in the range of 100 to 500 nM. Also, at BCL-XL [2], the Dmax fell in the range of 50 to 75% and the DC50 was in the range of 100 to 500 nM. Besides, the IC50 in the assay with MOLT-4 cells lay in the range of 100 to 1000 nM.
For `Cc1ncsc1-c1ccc(CNC(=O)[C@@H]2C[C@@H](O)CN2C(=O)[C@@H](NC(=O)C2(F)CC2)C(C)(C)C)c(OCCC2CN(CC[C@H](CSc3ccccc3)Nc3ccc(S(=O)(=O)NC(=O)c4ccc(N5CCN(CC6=C(c7ccc(Cl)cc7)CCC(C)(C)C6)CC5)cc4)cc3S(=O)(=O)C(F)(F)F)C2)c1` [I-208], at BCL-XL [1], the Dmax lay within 50 to 75% and the 50% degradation concentration (DC50) was in the range of 500 to 1000 nM. Further, on BCL-XL [2], the Dmax is less than 50% and the DC50 was greater than 1000 nM. Moreover, in the assay on MOLT-4 cells, the IC50 lay within 100 to 1000 nM.
Taken in the same sequence, the figures for `Cc1ncsc1-c1ccc(CNC(=O)[C@@H]2C[C@@H](O)CN2C(=O)[C@H](c2cc(OCCCCCCCCC(=O)N(C)CC#Cc3ccc(OCCCc4ccc(N5CCc6cccc(C(=O)Nc7nc8ccccc8s7)c6C5)nc4C(=O)O)c(F)c3)no2)C(C)C)cc1` [I-172] were greater than 75%, less than 10 nM, 50 to 75%, 10 to 100 nM and 100 to 1000 nM.
In the case of `Cc1ncsc1-c1ccc([C@H](C)NC(=O)[C@@H]2C[C@@H](O)CN2C(=O)[C@@H](NC(=O)CCC2CCC(S(=O)(=O)NC(=O)c3nc(N4CCc5cccc(C(=O)Nc6nc7ccccc7s6)c5C4)ccc3-c3cnn(CC4CCCCC4)c3C)CC2)C(C)(C)C)cc1` (stereo partly drawn) [I-209], at BCL-XL [1], the Dmax was greater than 75% and the DC50 was in the range of 10 to 100 nM. In addition, on BCL-XL [2], the Dmax is 50 to 75% and the DC50 lay in the range of 100 to 500 nM. The IC50 in the assay with MOLT-4 cells was less than 100 nM.
As to `Cc1ncsc1-c1ccc([C@H](C)NC(=O)[C@@H]2C[C@@H](O)CN2C(=O)[C@@H](NC(=O)CCCCCCC(=O)N2CCN(C[C@@]3(C)CCC(c4ccc(Cl)cc4)=C(CN4CCN(c5ccc(C(=O)NS(=O)(=O)c6ccc(N[C@H](CCN7CCOCC7)CSc7ccccc7)c(S(=O)(=O)C(F)(F)F)c6)cc5)CC4)C3)CC2)C(C)(C)C)cc1` [I-396], at BCL-XL [1], the Dmax was greater than 75% and the half-maximal degradation concentration (DC50) is less than 10 nM. For the same compound, at BCL-XL [2], the Dmax lay within 50 to 75% and the DC50 is 500 to 1000 nM. In addition, the IC50 in the assay on MOLT-4 cells lay in the range of 100 to 1000 nM.
Taken in the same sequence, the figures for `Cc1ncsc1-c1ccc([C@H](C)NC(=O)[C@@H]2C[C@@H](O)CN2C(=O)[C@@H](NC(=O)N2CC(N3CCC(S(=O)(=O)NC(=O)c4nc(N5CCc6cccc(C(=O)Nc7nc8ccccc8s7)c6C5)ccc4-c4cnn(CC5CCCCC5)c4C)CC3)C2)C(C)(C)C)cc1` [I-212] were greater than 75%, less than 10 nM, 50 to 75%, 100 to 500 nM and 100 to 1000 nM.
As for `Cc1ncsc1-c1ccc(CNC(=O)[C@@H]2C[C@@H](O)CN2C(=O)[C@H](c2cc(N3CC4(CN(CCCC(=O)N(C)CC#Cc5ccc(OCCCc6ccc(N7CCc8cccc(C(=O)Nc9nc%10ccccc%10s9)c8C7)nc6C(=O)O)c(F)c5)C4)C3)no2)C(C)C)cc1` [I-181], on BCL-XL [1], the Dmax was greater than 75% and the DC50 was less than 10 nM. Besides, on BCL-XL [2], the Dmax lay within 50 to 75% and the DC50 fell in the range of 10 to 100 nM. Moreover, the IC50 in the assay on MOLT-4 cells fell in the range of 100 to 1000 nM.

For the origin of these results see patent US20250197387A1, “BCL-XL DEGRADERS AND USES THEREOF” (Kymera Therapeutics, Inc., priority 2021, published 2025).
